In brackets after ≈: the same amount, converted by molar mass. Non-standard residues stand in square brackets, D forms with d. Residues, ends and D or L forms follow the SMILES beside them. Aib = CC(C)(N)C(=O)O
Key:
[1] = tested on: clinically collected A. baumannii strains
Method: (§1) Strain stocks were maintained at −80°C in 10% glycerol. Bacteria were streaked on fresh plates before each experiment. Most of them were cultured in LB broth containing 10 g/L NaCl at 37°C, except for Mycobacteria in 7H9 broth and Enterococcus in BHI broth. Porphyromonas gingivalis was cultured in BHI broth supplemented with 1 μg/ml vitamin k1, 5 μg/ml hemin, and 5 mg/ml L-cysteine hydrochloride at 37°C in the anaerobic chamber. The minimal inhibitory concentrations (MICs) of antimicrobials were determined using the microdilution method in the corresponding broth.
TAble S2. Determination of bactericidal effect of COG1410 against clinically collected A. baumannii strains. MIC was measured in LB broth by microdilution method.

[2] = tested on: pandrug-resistant (PDR) Acinetobacter baumannii YQ4
[3] = tested on: MDR Mycobacterium tuberculosis 6–45; conditions: microdilution method, 7H9 broth
[4] = tested on: Porphyromonas gingivalis ATCC33277
[5] = tested on: A. baumannii YQ4 preformed biofilm; test: biofilm eradication assay, crystal violet; format: cell-based, Acinetobacter baumannii; conditions: 48 h preformed biofilm, 24 h treatment
Method: Biofilm eradication assay was performed as described previously (Mwangi et al., [2019]). A. baumannii YQ4 culture of log phase was diluted in fresh LB broth to OD600 0.01 and dispensed to a 96-well PVC plate with 200 μl per well. Plates were incubated at 37°C for 48 h and washed with PBS three times. Serial dilutions of COG1410 (0.5–128 μg/ml) were prepared using the same media, and 200 μl were dispensed into each well. Each concentration was determined in eight wells. LB without COG1410 was used as untreated control. After incubation for another 24 h, the remaining biofilm was quantified as described above. The experiments were performed in triplicate.

[6] = tested on: EBSL-producing Proteusbacillus vulgaris YQ19; conditions: microdilution method in the corresponding broth
[7] = tested on: MDR Citrobacter freundii 7–83; conditions: microdilution method in the corresponding broth
[8] = tested on: Escherichia coli ATCC25922
[9] = tested on: Staphylococcus aureus ATCC29213; test: MIC, microdilution method; format: cell-based; conditions: microdilution method in the corresponding broth
Method: as §1

[10] = tested on: Pseudomonas aeruginosa PAO1; test: MIC, microdilution method; format: cell-based; conditions: microdilution method in the corresponding broth
Method: as §1

A. baumannii YQ4 [11] = test: Live/Dead BacLight SYTO-9/PI staining, confocal microscopy; format: cell-based, Acinetobacter baumannii; conditions: 1× MIC COG1410 (16 μg/ml) or 5× MIC polymyxin B (80 μg/ml), 37°C, 30 min
Method: The damage to the cytoplasmic membrane was determined as described previously (Farkas et al., [2017]), with the Live/Dead BacLight bacterial viability kit (Invitrogen L7012). The log-phase culture of A. baumannii YQ4 was washed two times and suspended in PBS with the final OD600 of 0.1. […] Then, the cells were stained with 7.5 μM SYTO-9 and 30 μM propidium iodide (PI) in dark for 15 min. In total, 5 μl of culture was spotted on a clean slide coated with a thin layer of 1% agarose. The fluorescence was observed by Olympus FV3000 confocal laser scanning microscope. For SYTO-9, the excitation and emission were 483 and 503 nm, respectively. For PI, the excitation and emission were 493 and 636 nm, respectively.

[12] = tested on: A. baumannii YQ4 intracellular ROS; test: ROS detection, DCFH-DA probe; format: cell-based, Acinetobacter baumannii; conditions: 16 μg/ml
Method: The intracellular ROS level was determined by the Reactive Oxygen Species Assay Kit of Beyotime Biotechnology (S0033S), according to the manufacturer's instructions. The log-phase culture of A. baumannii YQ4 was harvested and washed in PBS, and then diluted 10 times, approximately 10^7 CFU/ml. In total, 1 μl of DCFH-DA (10 μM) was added to 1 ml of cell culture and incubated at 37°C for 20 min. Then the fluorescence probe was fully removed by washing with PBS three times and resuspending in PBS, followed by the addition of COG1410 (16 μg/ml) or water. Rosup (50 μg/ml) was positive control in the kit. The culture was incubated at 37°C for 30 min. The fluorescence intensity was measured by a plate reader at an excitation wavelength of 488 nm and an emission wavelength of 525 nm. The experiment was performed in duplicate.

[13] = tested on: methicillin-resistant Staphylococcus aureus 14–55; conditions: microdilution method in the corresponding broth
A. baumannii = conditions: 1× MIC, PBS, 2 h
[14] = tested on: vancomycin-resistant Enterococcus faecalis 11–34; conditions: vancomycin-resistant 11–34
[15] = tested on: MDR Enterobacter cloacae 7–86; conditions: microdilution method in the corresponding broth
[16] = tested on: MDR Streptococcus pneumoniae 10–58; conditions: microdilution method in the corresponding broth
[17] = tested on: Mycobacterium tuberculosis H37Rv; conditions: microdilution method, 7H9 broth
[18] = tested on: MDR Pseudomonas aeruginosa 14–61; conditions: microdilution method in the corresponding broth
[19] = tested on: PDR Acinetobacter baumannii YQ4; test: microbe, parasite or virus in culture; format: cell-based
Method: as §1
The pandrug-resistant A. baumannii YQ4 was collected from the clinical laboratory of the second hospital in Nanjing. The complete genome was sequenced by Nanopore, and the data were deposited in the GenBank with accession number CP053033.

[20] = tested on: PDR Klebsiella pneumoniae 84; conditions: microdilution method in the corresponding broth
[21] = tested on: human red blood cell (RBC); conditions: 1 h
Method: The anti-coagulated (citrate) whole blood sample was pelleted by centrifugation at 700 g for 8 min, washed three times with PBS, and suspended in 0.5% (vol/vol) PBS. […] The highest concentration was 512 μg/ml (363 μM). PBS and Triton X-100 (0.1%) were used as negative and positive controls, respectively. The plate was incubated at 37°C for 1 h, followed by centrifugation at 1,000 rpm for 5 min at 4°C. Aliquots of 60 μl of the supernatant from each well were quickly transferred to a new flat-bottom 96-well plate. The optical absorbance at OD414 was measured with a microplate reader (BioTek, synergy H1). The hemolysis percentage was then normalized with respect to the averaged negative (0%) and positive (100%) controls. Three independent experiments were conducted.

A. baumannii YQ4 [22] = test: scanning electron microscopy (SEM) of treated cells; format: cell-based, Acinetobacter baumannii; conditions: 1× MIC (16 μg/ml), PBS, 37°C, 30 min
Method: The log-phase culture of A. baumannii YQ4 was prepared as described above, harvested, and washed once with PBS. The pellets were suspended in PBS supplemented with 1 × COG1410 (16 μg/ml) or 1 × polymyxin B (16 μg/ml) and incubated at 37°C for 30 min. The untreated culture was used as a positive control to observe the morphology of the intact cell. […] After washing three times with PBS, the cells were post-fixed in 1% osmium at 4 °C for 1 h. After washing in distilled water for 1 h, the bacteria were dehydrated in the ascending concentrations of ethanol. Finally, these samples were transferred to ThermoFisher Quattro SEM for image collection after tert-butanol freeze-drying and sputter coating.

[23] = tested on: vancomycin-resistant Enterococcus faecium 11–47; conditions: vancomycin-resistant 11–47
A. baumannii YQ4 [24] = test: ATP leak assay; format: cell-based, Acinetobacter baumannii; conditions: 16 μg/ml COG1410, 16 μg/ml polymyxin B or 32 μg/ml tigecycline (1× MIC), PBS, 37°C, 30 min
Method: ATP leak assay was performed using the Enhanced ATP Assay Kit of Beyotime ([…]) according to the manufacturer's manual. […] The supernatant was harvested and used for the measurement of ATP levels. In total, 100 μl of supernatant was mixed with 100 μl of working solution, and the chemiluminescence was measured by using a Biotek Synergy H1 plate reader. The untreated sample was set as a negative control. The experiments were performed in triplicate.

plasmid pUC18 = test: DNA-binding assay, gel retardation
Method: Gel retardation experiments were conducted as previously described (Yan et al., [2013]). Briefly, 300 ng of the plasmid pUC18 was mixed with different concentrations of COG1410 in 30 μl of buffer (10 mM Tris-HCl and 1 mM EDTA buffer, pH 8.0) and incubated at room temperature for 30 min. The reaction mixtures were mixed with 1 × native loading buffer and subjected to 1.5% agarose gel electrophoresis. The migration of DNA was detected by the fluorescence of GelRed dye.

A. baumannii YQ4 [25] = test: antibacterial activity (LC99.9) in PBS or 50% pooled human plasma; format: cell-based, Acinetobacter baumannii; conditions: 2 h, 37°C
Method: The antibacterial activity of COG1410 in plasma was performed as described previously (De Breij et al., [2018]). Briefly, the log-phase culture of A. baumannii YQ4 was exposed to different concentrations of COG1410 in PBS or PBS supplemented with 50% (v/v) pooled human plasma. After incubation with shaking at 200 rpm at 37°C for 2 h, the CFU was counted on LB agar. LC99.9 indicates the lowest peptide concentration that kills ≥99.9% of bacteria. The experiments were conducted independently in triplicate.

## CC(=O)N[C@@H](C)C(=O)N[C@@H](CO)C(=O)NC(C)(C)C(=O)N[C@@H](CC(C)C)C(=O)N[C@@H](CCCNC(=N)N)C(=O)N[C@@H](CCCCN)C(=O)N[C@@H](CC(C)C)C(=O)NC(C)(C)C(=O)N[C@@H](CCCCN)C(=O)N[C@@H](CCCNC(=N)N)C(=O)N[C@@H](CC(C)C)C(=O)N[C@@H](CC(C)C)C(N)=O [COG1410, acetyl-AS-Aib-LRKL-Aib-KRLL-amide] (Ac-AS[Aib]LRKL[Aib]KRLL-NH2)
[1]; clinically collected strains
  MICs over 107 clinically collected A. baumannii strains: 16 to 32 µg/mL
[1]; strain Ab3-1 (MDR-Ab, hydrothorax and ascite), LB broth
  MIC: 32 µg/mL (≈ 22.7 µM)
[2]
  minimal bactericidal concentration (MBC): 16 µg/mL (≈ 11.4 µM)
[3]
  MIC: 16 µg/mL (≈ 11.4 µM)
[4]
  MIC: 32 µg/mL (≈ 22.7 µM)
[5]; 1× MIC
  mature biofilm dispersed: approximately 46%
[5]; 4 × MIC
  biofilm eradicated: more than 88%
[6]
  MIC: >256 µg/mL
[7]
  MIC: 16 µg/mL (≈ 11.4 µM)
[8]
  MIC: 64 µg/mL (≈ 45.4 µM)
[9]
  MIC: >256 µg/mL
[10]
  MIC: >256 µg/mL
A. baumannii YQ4 [11]
  SYTO-9/PI staining of treated cells: red fluorescence
[12]; 37°C, Figure 3D
  ROS production, in words: significantly lead to more ROS production
[12]; treatment for 20 min as printed
  more ROS detected by DCFH-DA probe: 30%
[13]
  MIC: >256 µg/mL
A. baumannii
  A. baumannii population killed, in words: almost complete elimination
[14]
  MIC: 32 µg/mL (≈ 22.7 µM)
[15]
  MIC: 64 µg/mL (≈ 45.4 µM)
Bacillus subtilis 168
  MIC: 1 µg/mL (≈ 0.71 µM)
[16]
  MIC: >256 µg/mL
[17]
  MIC: 16 µg/mL (≈ 11.4 µM)
[18]
  MIC: >256 µg/mL
[19]; PDR YQ4
  MIC: 11.3 µM
[19]; microdilution method, LB broth
  MIC: 16 µg/mL
[20]
  MIC: >256 µg/mL
[21]
  EC50, lysis of half of the red blood cells: 441 µg/mL
[21]; red cells of human, 128 μg/ml
  hemolysis: < 5%
A. baumannii YQ4 [22]
  cell morphology by SEM: intact, with little debris observed
[23]
  MIC: 16 µg/mL (≈ 11.4 µM)
A. baumannii YQ4 [24]
  ATP leak (extracellular ATP): significantly more than untreated control and tigecycline treatment group
Plasmid pUC18; 1× MIC, 300 ng plasmid, 30 min room temperature, 1.5% agarose
  electrophoretic mobility of pUC18: only part of them migrated
Plasmid pUC18; higher concentrations than 1× MIC
  electrophoretic mobility of pUC18: completely retarded
A. baumannii YQ4 [25]; PBS with 50% (v/v) pooled human plasma
  LC99.9: 8 µg/mL
A. baumannii YQ4 [25]; PBS, lowest concentration that kills ≥99.9% of bacteria
  LC99.9: 2 µg/mL
